Measured values from ChEMBL document CHEMBL3352042, “Synthesis of novel benzimidazole functionalized chiral thioureas and evaluation of their antibacterial and anticancer activities” (Bioorg Med Chem Lett, 2014).
Activity calls are given as the source filed them. No cut-off for these calls is given here.

How the values were obtained:
[1] = test system: Staphylococcus aureus; test: Antibacterial activity against Staphylococcus aureus MTCC 96 after 24 hrs by well diffusion method; format: functional
[2] = test system: Bacillus subtilis; test: Antibacterial activity against Bacillus subtilis MTCC 121 after 24 hrs by well diffusion method; format: functional
[3] = test system: Staphylococcus aureus; test: Antibacterial activity against Staphylococcus aureus MLS16 MTCC 2940 after 24 hrs by well diffusion method; format: functional
[4] = test system: Micrococcus luteus; test: Antibacterial activity against Micrococcus luteus MTC 2470 after 24 hrs by well diffusion method; format: functional
[5] = test system: Raoultella planticola; test: Antibacterial activity against Klebsiella planticola MTCC 530 after 24 hrs by well diffusion method; format: functional
[6] = test system: Escherichia coli; test: Antibacterial activity against Escherichia coli MTCC 739 after 24 hrs by well diffusion method; format: functional
[7] = test system: Pseudomonas aeruginosa; test: Antibacterial activity against Pseudomonas aeruginosa MTCC 2453 after 24 hrs by well diffusion method; format: functional
[8] = test system: A549; test: Cytotoxicity against human A549 cells by MTT assay; format: functional, cell-based; settings: Homo sapiens, A549; read-out: IC50
[9] = test system: MCF7; test: Cytotoxicity against human MCF7 cells by MTT assay; format: functional, cell-based; settings: Homo sapiens, MCF7; read-out: IC50
[10] = test system: DU-145; test: Cytotoxicity against human DU145 cells by MTT assay; format: functional, cell-based; settings: Homo sapiens, DU-145; read-out: IC50
[11] = test system: HeLa; test: Cytotoxicity against human HeLa cells by MTT assay; format: functional, cell-based; settings: Homo sapiens, HeLa; read-out: IC50

Compound: CC(C)C[C@@H](NC(=S)NCc1ccccc1)c1nc2ccccc2[nH]1
- MIC [1]: inactive
- MIC [2]: inactive
- MIC [3]: inactive
- MIC [4]: inactive
- MIC [5]: inactive
- MIC [6]: inactive
- MIC [7]: inactive
- IC50 [8]: 22.4 µM
- IC50 [9]: 18.2 µM
- IC50 [10]: 21.2 µM
- IC50 [11]: 21.2 µM
